# Bases are written 5' to 3'; sugars and linkages follow in the same order, as letters with counts (s phosphorothioate, o phosphodiester; PS: all linkages phosphorothioate). The collection does not say whether C is 5-methylated. l = locked nucleic acid (LNA); d = 2'-deoxy (DNA)
# Target: Tau
# Test: rat primary cortical neurons, FLIPR, 25 uM ASO
row,Sequence,calcium oscillation score
1,"CATAAATGACTATACTTATT (sugars l3 d14 l3, PS)",94.7 % of control
2,"CATAATCCTACCACCAG (sugars l2 d12 l3, PS)",61.3 % of control
3,"CATAGCACTTACTACTT (sugars l4 d10 l3, PS)",84.1 % of control
4,"CATAGTCACTCTGGTG (sugars l3 d10 l3, PS)",1.9 % of control
5,"CATATTCTTCCCTTAATA (sugars l3 d13 l2, PS)",81.1 % of control
6,"CATATTCTTCCCTTAATAA (sugars l3 d13 l3, PS)",68 % of control
7,"CATCAAATCCATGCAT (sugars l4 d8 l4, PS)",76.7 % of control
8,"CATCAACACCTTTTAATTCA (sugars l2 d14 l4, PS)",98.4 % of control
9,"CATCAATTTGGAAAGATGAA (sugars l3 d14 l3, PS)",62.5 % of control
10,"CATCACCAAGTCCCAAA (sugars l2 d11 l4, PS)",81 % of control
11,"CATCACTTCGAACTCC (sugars l3 d10 l3, PS)",≥ 200 % of control
12,"CATCAGCCTTCATCACA (sugars l4 d11 l2, PS)",91.8 % of control
13,"CATCAGTCTTATCTCCC (sugars l2 d13 l2, PS)",54.7 % of control
14,"CATCCACTTAGACACTC (sugars l4 d11 l2, PS)",43.8 % of control
15,"CATCCATTTTCTGACTC (sugars l4 d11 l2, PS)",52 % of control
16,"CATCCATTTTCTGACTCT (sugars l4 d12 l2, PS)",42.4 % of control
17,"CATCCTAAGTCAACCAC (sugars l3 d11 l3, PS)",72.7 % of control
18,"CATCGCTTCCAGTC (sugars l3 d8 l3, PS)",116 % of control
19,"CATCGCTTCCAGTCCC (sugars l3 d10 l3, PS)",39.1 % of control
20,"CATCTAAACACCTCAATCCA (sugars l2 d16 l2, PS)",72.6 % of control
21,"CATCTACTTTCTGTCACC (sugars l2 d14 l2, PS)",63.4 % of control
22,"CATCTCTCTAGACATCT (sugars l4 d11 l2, PS)",79.4 % of control
23,"CATCTCTCTAGACATCTC (sugars l2 d13 l3, PS)",64.6 % of control
24,"CATCTTAATTCATTTAATTC (sugars l4 d12 l4, PS)",84.1 % of control
25,"CATCTTCCTTTAGTTTT (sugars l4 d10 l3, PS)",50.9 % of control
26,"CATGACATTTTAAACCC (sugars l3 d10 l4, PS)",69.2 % of control

row,Sequence,calcium oscillation score
1,"CATGAGCACTAACTCTAAGT (sugars l3 d14 l3, PS)",47.6 % of control
2,"CATGATCTTAGGCT (sugars l3 d8 l3, PS)",25.3 % of control
3,"CATGATCTTAGGCTG (sugars l3 d9 l3, PS)",46 % of control
4,"CATGATCTTAGGCTGG (sugars l3 d10 l3, PS)",7.83 % of control
5,"CATGATTAATTACACCC (sugars l3 d11 l3, PS)",35.5 % of control
6,"CATGATTGTGGGCTT (sugars l3 d9 l3, PS)",0 % of control
7,"CATGATTGTGGGCTTA (sugars l3 d10 l3, PS)",0 % of control
8,"CATGCAGTTTATTCCTGGCA (sugars l3 d14 l3, PS)",6.04 % of control
9,"CATGCTTACACACCAC (sugars l2 d10 l4, PS)",82.9 % of control
10,"CATGCTTACACACCACAC (sugars l2 d13 l3, PS)",73.5 % of control
11,"CATGTCGATGCTGC (sugars l3 d8 l3, PS)",30.5 % of control
12,"CATGTCGATGCTGCC (sugars l3 d9 l3, PS)",89.5 % of control
13,"CATGTCGATGCTGCCG (sugars l3 d10 l3, PS)",67.3 % of control
14,"CATTAACCCTTGATCATATT (sugars l3 d14 l3, PS)",36.3 % of control
15,"CATTATCATCCATTCTG (sugars l3 d10 l4, PS)",47.3 % of control
16,"CATTATTCTTTTTTTTTCCA (sugars l4 d14 l2, PS)",43.3 % of control
17,"CATTCCCTCCAGAACCATCA (sugars l3 d14 l3, PS)",34.2 % of control
18,"CATTCTATACTTCAGA (sugars l3 d9 l4, PS)",79 % of control
19,"CATTGGAACTGAGCAC (sugars l3 d10 l3, PS)",8.33 % of control
20,"CATTTACCAATTATCTTTAA (sugars l4 d12 l4, PS)",72 % of control
21,"CATTTCTGGAAGGTTCTTTC (sugars l3 d14 l3, PS)",23.9 % of control
22,"CATTTTACTAAAACGC (sugars l4 d8 l4, PS)",91.6 % of control
23,"CATTTTCTGACTCTAAT (sugars l4 d9 l4, PS)",57.8 % of control
24,"CATTTTTGTCTCATTAT (sugars l4 d9 l4, PS)",51 % of control
25,"CATTTTTTATTCATAACTTT (sugars l4 d12 l4, PS)",59.4 % of control
26,"CCAAAACATTCTCACCAAAC (sugars l3 d15 l2, PS)",68.1 % of control

row,Sequence,calcium oscillation score
1,"CCAAACTTTTACTCTGA (sugars l4 d10 l3, PS)",44.5 % of control
2,"CCAAATTCCTCATAATCCA (sugars l2 d15 l2, PS)",75 % of control
3,"CCAAATTCCTCATAATCCAA (sugars l2 d15 l3, PS)",73.4 % of control
4,"CCAACTCAACATTACCCTT (sugars l2 d15 l2, PS)",66.3 % of control
5,"CCAACTCTTTGAACACC (sugars l3 d12 l2, PS)",75.5 % of control
6,"CCAACTTTCATCTACTTTTC (sugars l2 d16 l2, PS)",99.7 % of control
7,"CCAAGAGGCACAAGTC (sugars l3 d10 l3, PS)",74.3 % of control
8,"CCAATACTAGATCTAT (sugars l4 d8 l4, PS)",64.7 % of control
9,"CCAATCAATTATATTATAT (sugars l4 d11 l4, PS)",60.8 % of control
10,"CCAATCTTCGACTGGACTCT (sugars l3 d14 l3, PS)",22.6 % of control
11,"CCAATTAACCGAACTG (sugars l3 d10 l3, PS)",55.2 % of control
12,"CCAATTAACCGAACTGCGAG (sugars l3 d14 l3, PS)",41.4 % of control
13,"CCAATTATCTTTAAATTCTA (sugars l4 d13 l3, PS)",70.7 % of control
14,"CCAATTGTCACATTAA (sugars l4 d8 l4, PS)",63.1 % of control
15,"CCACACTTGGAGGTCACCTT (sugars l3 d14 l3, PS)",4.52 % of control
16,"CCACATTTGTCTTTAAC (sugars l3 d10 l4, PS)",42.9 % of control
17,"CCACCATACTTGACTTC (sugars l3 d12 l2, PS)",91.6 % of control
18,"CCACCATACTTGACTTCT (sugars l2 d14 l2, PS)",76.8 % of control
19,"CCACCCAAACTCCAAGTT (sugars l2 d14 l2, PS)",52 % of control
20,"CCACCCATCAATTTGGAAAG (sugars l3 d14 l3, PS)",58.1 % of control
21,"CCACCCTAACACAATCA (sugars l2 d12 l3, PS)",94 % of control
22,"CCACCTCATTAAGATCA (sugars l3 d12 l2, PS)",56 % of control
23,"CCACCTCCTAGAACACA (sugars l2 d13 l2, PS)",50.9 % of control
24,"CCACCTCCTGGTTTAT (sugars l3 d10 l3, PS)",104 % of control
25,"CCACCTCCTGGTTTATGATG (sugars l3 d14 l3, PS)",19.4 % of control
26,"CCACTACAAGCTCCACAT (sugars l2 d14 l2, PS)",50 % of control

# Source: the OligoGym collection
